Measured values published in ChEMBL document CHEMBL3301562, “MMV Box screening against Plasmodium falciparum protein kinases and aminoacyl tRNA synthetases”.

Key:
Type in all cases: functional
[1] = molecular target: T1, Cdk-related protein kinase 6 (Plasmodium falciparum, UniProt O77239); experiment: Final concentrations were 1.5 uM ATP, 5 mM MnCl2, and 15 ug/ml PK6 in a buffer of 100 mM Tris-HCl (pH 7.5). 50 ug/mL MBP was provided as the substrate; 10 uM staurosporine was used as a control inhibitor. Incubation time was 3 hours and 40 minutes.The catalytic activity of each kinase was considered proportional to ATP consumed, as determined from measurements of residual [ATP] with the luciferase-based reagent Kinase-Glo (Promega) following incubation. Luminescence (proportional to residual [ATP]) was measured on the plate readers FLx800 (BioTek Instruments, Winooski, VT, USA) and MicroBeta2.
T1 sequence (O77239 whole entry): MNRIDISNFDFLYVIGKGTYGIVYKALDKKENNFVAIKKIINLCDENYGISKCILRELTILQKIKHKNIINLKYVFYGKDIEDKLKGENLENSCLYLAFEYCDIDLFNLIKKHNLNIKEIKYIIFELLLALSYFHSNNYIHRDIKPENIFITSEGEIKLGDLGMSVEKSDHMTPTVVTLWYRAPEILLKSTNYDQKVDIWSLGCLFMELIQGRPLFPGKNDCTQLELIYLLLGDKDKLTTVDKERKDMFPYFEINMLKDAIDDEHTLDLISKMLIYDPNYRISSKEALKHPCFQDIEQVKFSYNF

[2] = molecular target: T2, Mitogen-activated protein kinase (Plasmodium falciparum, UniProt Q25917); experiment: Final concentrations were 1 uM ATP, 0.5 mM DTT, 1 mM MgCl2, 0.5 mg/mL BSA, and 10 ug/ml MAP2 in a buffer of 50 mM HEPES (pH 7.0). 0.5 mg/mL histone III-S served as the substrate (13); 100 uM AMP-PNP, an ATP analog, was used as a control inhibitor. Incubation time was 4 hours.
T2 sequence (Q25917 whole entry): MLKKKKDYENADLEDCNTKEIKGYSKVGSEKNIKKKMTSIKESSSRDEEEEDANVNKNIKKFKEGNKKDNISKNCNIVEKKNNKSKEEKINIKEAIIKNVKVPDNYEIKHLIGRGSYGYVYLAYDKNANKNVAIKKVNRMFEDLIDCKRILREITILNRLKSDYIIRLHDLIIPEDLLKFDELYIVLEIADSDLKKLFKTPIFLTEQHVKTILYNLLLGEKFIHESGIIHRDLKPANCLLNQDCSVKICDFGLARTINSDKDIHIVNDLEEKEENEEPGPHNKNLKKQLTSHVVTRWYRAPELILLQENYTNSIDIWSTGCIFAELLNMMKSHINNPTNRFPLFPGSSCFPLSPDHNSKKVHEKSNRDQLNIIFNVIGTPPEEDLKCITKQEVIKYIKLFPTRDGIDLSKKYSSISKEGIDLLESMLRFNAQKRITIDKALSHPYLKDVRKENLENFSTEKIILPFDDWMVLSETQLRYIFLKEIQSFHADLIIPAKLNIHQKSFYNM

Proline--tRNA ligase = molecular target: T3, Proline--tRNA ligase (Plasmodium falciparum (isolate 3D7), UniProt Q8I5R7); experiment: MMV: ProRS recombinant Plasmodium falciparum Prolyl-tRNA-synthetase, assay with yeast tRNA, ATP, and proline and 3 uM MMV malaria box compound, assay read out with kinase glo as % inhibition.
T3 sequence (Q8I5R7 whole entry): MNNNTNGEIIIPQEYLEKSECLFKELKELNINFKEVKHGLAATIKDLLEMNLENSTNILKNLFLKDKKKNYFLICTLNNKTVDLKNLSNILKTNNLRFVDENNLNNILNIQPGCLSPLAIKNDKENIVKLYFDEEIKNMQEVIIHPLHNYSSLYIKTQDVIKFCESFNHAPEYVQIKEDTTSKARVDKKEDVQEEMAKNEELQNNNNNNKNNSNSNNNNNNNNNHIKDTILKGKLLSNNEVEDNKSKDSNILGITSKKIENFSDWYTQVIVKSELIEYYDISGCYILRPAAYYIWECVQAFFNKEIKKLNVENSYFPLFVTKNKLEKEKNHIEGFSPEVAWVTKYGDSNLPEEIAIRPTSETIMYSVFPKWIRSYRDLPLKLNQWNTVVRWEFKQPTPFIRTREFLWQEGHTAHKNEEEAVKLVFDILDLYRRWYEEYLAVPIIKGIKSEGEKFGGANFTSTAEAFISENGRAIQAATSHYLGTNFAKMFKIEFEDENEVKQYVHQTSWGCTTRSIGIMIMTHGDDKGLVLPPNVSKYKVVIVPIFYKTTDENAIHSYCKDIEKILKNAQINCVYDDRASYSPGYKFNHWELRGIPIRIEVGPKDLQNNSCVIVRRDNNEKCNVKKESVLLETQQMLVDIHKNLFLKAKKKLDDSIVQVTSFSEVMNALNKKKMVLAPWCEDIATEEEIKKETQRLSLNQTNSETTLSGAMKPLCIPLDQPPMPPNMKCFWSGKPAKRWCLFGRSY

[3] = molecular target: Calcium-dependent protein kinase 1 (Plasmodium falciparum, UniProt P62344); experiment: MMV: CDPK1 Protein kinase inhibition assay using recombinant PfCDPK1, syntide 2 peptide substrate, ATP and KinaseGlo to measure % inhibition at 1 uM MMV box compound.
Calcium-dependent protein kinase 1, sequence (P62344 whole entry): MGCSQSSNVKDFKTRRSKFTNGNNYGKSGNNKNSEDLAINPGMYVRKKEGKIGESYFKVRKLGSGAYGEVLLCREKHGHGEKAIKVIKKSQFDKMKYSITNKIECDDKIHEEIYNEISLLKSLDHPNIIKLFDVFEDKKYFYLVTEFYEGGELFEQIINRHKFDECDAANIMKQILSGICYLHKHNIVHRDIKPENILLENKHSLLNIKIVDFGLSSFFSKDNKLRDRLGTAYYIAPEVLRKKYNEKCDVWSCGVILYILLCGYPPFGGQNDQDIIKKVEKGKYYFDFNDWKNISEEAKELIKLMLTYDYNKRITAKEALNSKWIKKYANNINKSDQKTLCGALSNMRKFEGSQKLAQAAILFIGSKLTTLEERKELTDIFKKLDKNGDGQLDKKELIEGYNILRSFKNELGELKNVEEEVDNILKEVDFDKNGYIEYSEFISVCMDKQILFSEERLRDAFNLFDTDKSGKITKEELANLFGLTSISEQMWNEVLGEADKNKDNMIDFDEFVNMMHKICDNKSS

[4] = molecular target: T4, Putative uncharacterized protein pk7 (Plasmodium falciparum, UniProt O96214); experiment: Final concentrations were 1 uM ATP, 2 mM DTT, 20 mM MgCl2, 2 mM MnCl2, 0.01% BSA, and 6 ug/ml PK7, in a buffer of 20 mM Tris-HCl (pH 7.5). The enzyme itself was the only substrate present (since autophosphorylation occurs); 100 uM 1NA-PP1 was used as a control inhibitor. Incubation time was 3 hours.
T4 sequence (O96214 whole entry): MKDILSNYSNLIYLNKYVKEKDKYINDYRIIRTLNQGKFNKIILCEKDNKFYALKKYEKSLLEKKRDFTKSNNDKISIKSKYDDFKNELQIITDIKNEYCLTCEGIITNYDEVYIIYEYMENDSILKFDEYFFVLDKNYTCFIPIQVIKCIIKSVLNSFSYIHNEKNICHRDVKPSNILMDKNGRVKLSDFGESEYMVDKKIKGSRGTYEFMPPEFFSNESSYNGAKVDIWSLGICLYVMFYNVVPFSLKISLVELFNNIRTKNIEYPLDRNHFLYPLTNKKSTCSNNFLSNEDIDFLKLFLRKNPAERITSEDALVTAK

Lysine--tRNA ligase = Lysine--tRNA ligase (Plasmodium falciparum (isolate 3D7), UniProt Q8IDJ8); experiment: MMV: KRS recombinant Plasmodium falciparum Lysyl-tRNA-synthetase, assay with yeast tRNA, ATP, and lysine and 3 uM MMV malaria box compound, assay read out with kinase glo as % inhibition.
Lysine--tRNA ligase, sequence (Q8IDJ8 whole entry): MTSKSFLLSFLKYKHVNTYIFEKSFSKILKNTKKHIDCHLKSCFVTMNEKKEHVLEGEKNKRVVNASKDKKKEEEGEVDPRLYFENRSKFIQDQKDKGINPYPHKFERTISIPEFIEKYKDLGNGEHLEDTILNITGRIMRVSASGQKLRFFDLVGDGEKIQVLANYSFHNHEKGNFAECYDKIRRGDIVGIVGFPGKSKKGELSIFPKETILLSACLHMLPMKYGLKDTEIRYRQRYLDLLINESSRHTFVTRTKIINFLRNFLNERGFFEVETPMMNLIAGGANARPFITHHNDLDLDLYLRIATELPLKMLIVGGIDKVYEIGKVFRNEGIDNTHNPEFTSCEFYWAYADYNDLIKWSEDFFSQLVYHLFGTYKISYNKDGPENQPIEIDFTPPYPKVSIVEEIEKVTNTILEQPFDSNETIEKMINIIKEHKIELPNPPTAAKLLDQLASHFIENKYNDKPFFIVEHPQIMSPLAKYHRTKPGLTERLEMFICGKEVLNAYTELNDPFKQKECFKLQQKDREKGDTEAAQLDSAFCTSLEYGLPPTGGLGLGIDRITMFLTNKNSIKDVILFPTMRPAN

[5] = molecular target: T5, Calcium-dependent protein kinase 4 (Plasmodium falciparum (isolate 3D7), UniProt Q8IBS5); experiment: MMV: CDPK4 Protein kinase inhibition assay using recombinant PfCDPK4, syntide2 peptide substrate, ATP and KinaseGlo to measure % inhibition at 1 uM MMV box compound.
T5 sequence (Q8IBS5 whole entry): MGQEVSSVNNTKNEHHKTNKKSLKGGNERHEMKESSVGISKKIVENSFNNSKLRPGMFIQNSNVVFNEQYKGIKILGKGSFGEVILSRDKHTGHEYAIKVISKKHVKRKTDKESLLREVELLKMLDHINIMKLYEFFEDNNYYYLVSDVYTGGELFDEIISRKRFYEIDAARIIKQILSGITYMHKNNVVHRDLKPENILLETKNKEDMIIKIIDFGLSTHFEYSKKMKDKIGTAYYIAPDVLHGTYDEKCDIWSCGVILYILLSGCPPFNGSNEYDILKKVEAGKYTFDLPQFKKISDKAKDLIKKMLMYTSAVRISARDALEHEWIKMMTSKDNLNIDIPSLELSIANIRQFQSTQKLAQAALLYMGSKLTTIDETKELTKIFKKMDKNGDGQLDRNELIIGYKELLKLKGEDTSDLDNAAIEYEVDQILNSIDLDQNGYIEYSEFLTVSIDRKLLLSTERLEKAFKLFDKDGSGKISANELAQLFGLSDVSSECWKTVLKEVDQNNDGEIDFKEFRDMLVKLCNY

| Compound | IC50 [1] | IC50 [2] | IC50 (Proline--tRNA ligase) | IC50 [3] | IC50 [4] | IC50 (Lysine--tRNA ligase) | IC50 [5] |
| --- | --- | --- | --- | --- | --- | --- | --- |
| CCN1CCCC1CNc1[nH]cnc2c3cc(Cl)ccc3nc1-2 (configuration not stated) | > 1000 nM | > 1000 nM | > 2500 nM | > 1000 nM | > 1000 nM | > 2500 nM | > 1000 nM |
| C[n+]1c2ccccc2nc2ccc(NCCO)cc21 | > 1000 nM | > 1000 nM | > 2500 nM | > 1000 nM | > 1000 nM | > 2500 nM | > 1000 nM |
| CCOC(=O)c1cnc2ccc(CC)cc2c1O | > 1000 nM | > 1000 nM | > 2500 nM | > 1000 nM | > 1000 nM | > 2500 nM | > 1000 nM |
| Cc1ccc(-c2cc3c(nn2)-c2ccccc2C3=O)cc1 | > 1000 nM | > 1000 nM | > 2500 nM | > 1000 nM | > 1000 nM | > 2500 nM | > 1000 nM |
| COc1ccc(-n2ccnc2SCC(=O)Nc2cc(C)ccc2C)c(OC)c1 | > 1000 nM | > 1000 nM | > 2500 nM | > 1000 nM | > 1000 nM | > 2500 nM | > 1000 nM |
| CCN1CCN(Cc2ccc(NC(=O)c3cc4ccc5cccnc5c4[nH]3)cc2)CC1 | > 1000 nM | > 1000 nM | > 2500 nM | > 1000 nM | > 1000 nM | > 2500 nM | > 1000 nM |
| CCOc1cc2c(cc1OCC)C(c1cc(OC)c(O)cc1Cl)NCC2 (configuration not stated) | > 1000 nM | > 1000 nM | > 2500 nM | > 1000 nM | > 1000 nM | > 2500 nM | > 1000 nM |
| COc1cccc(C=Cc2nc(=O)c3ccccc3o2)c1OC | > 1000 nM | > 1000 nM | > 2500 nM | > 1000 nM | > 1000 nM | > 2500 nM | > 1000 nM |
| COc1ccc(C(=O)Nc2nonc2-c2ccc(OC)c(OC)c2)cc1Cl | > 1000 nM | > 1000 nM | > 2500 nM | > 1000 nM | > 1000 nM | > 2500 nM | > 1000 nM |
| COc1ccc2c(c1)OC(O)(C(F)(F)C(F)(F)F)CC2=O (configuration not stated) | > 1000 nM | > 1000 nM | > 2500 nM | > 1000 nM | > 1000 nM | > 2500 nM | > 1000 nM |
| CCOc1cc(Cl)c(C(C)NC(=O)c2ccccc2)cc1OCC (configuration not stated) | > 1000 nM | > 1000 nM | > 2500 nM | > 1000 nM | > 1000 nM | > 2500 nM | > 1000 nM |
